Earlier results on six compounds are cited in US6821523B2, “Topical administration of pharmacologically active bases in the treatment of warts” (Dermatrends, Inc., priority 2002, dated 2004).

In data set [1] the test system is cutaneous warts. Particulars: for efficacy in words: survey of clinical trials, local wart treatment.

With bleomycin, in data set [1], the efficacy in words result was “weak at best”.

As to `O=P([O-])([O-])O.[K+].[K+]` [Potassium phosphate, dibasic], the “pH of Aqueous Solution, alkalinity in words” value is “Aqueous solution is slightly alkaline”.

Take `O.O.O.O.O.O.O.O.O.O.O.O.O=P([O-])([O-])[O-].[Na+].[Na+].[Na+]` [Sodium phosphate, tribasic dodecahydrate]: the “pH of Aqueous Solution (concentration)” value (1.0% (1%)) was 11.9 (1.0%).

Take `O=B[O-].[Na+]` [Sodium metaborate]: the “pH of Aqueous Solution, alkalinity in words” value is given as “Strongly alkaline”.

On to `O=c1[nH]cc(F)c(=O)[nH]1` [5-fluorouracil], for which the efficacy in words entry in data set [1] was “weak at best”.

For the compound `O=C(O)c1ccccc1O` [salicylic acid], the cure rates entry in data set [1] (simple topical treatments, vs 48% for placebos) was “about 75%”.
